# Reference: patent EP4678638A1, “NEW E3 UBIQUITIN LIGASE LIGAND, PROTEIN DEGRADATION AGENT AND USE THEREOF” (priority 2023, dated 2024)
# pIC50: −log10 of the molar value.
# Assays:
# [1] = system: CFPAC-1; test: CCK-8 proliferation, CFPAC-1; assay type: cell-based; conditions: Homo sapiens, 72 or 96 hours, read-out: Inhibitory activity (IC50) on tumor cell proliferation, CFPAC-1
# Method: (§1) The tumor cells used herein were cultured in a cell culture medium listed in table A1 at 37°C in an incubator with 5% CO2. Prior to experimentation, all cell lines used were correctly identified by STR profiling, and tested negative for mycoplasma contamination using a mycoplasma detection kit through routine screenings. Table A1. Tumor cells and cell culture medium used in the present disclosure
# (§2) IC50 values of the compounds of the present disclosure (including the compounds in Table 1, and compounds of examples) were measured using the Meilun Cell Counting Kit-8 kit from Dalian Meilun Biotech Co., Ltd. Assay details are as follows: tumor cells were seeded in a 96-well plate at a density listed in Table A2. After 24h, 100 µL of the inoculated cells were treated with 0.5µL of the compounds of the present disclosure (including the compounds in Tables 1 and 2, and compounds of examples) at 10 different successively decreasing concentrations (starting at the highest concentration of 10µM; 5-fold serial dilutions). After the cells were treated with the compounds of the present disclosure for a period of time, the cell viability detection reagent was added to the culture medium for cell viability assessment according to the instructions provided with the CCK-8 kit. […] The growth inhibition of the compounds of the present disclosure on cells was plotted by Prism Graphpad software, and the IC50 values of the compounds of the present disclosure were calculated therefrom. […] Seeding protocol and treatment time for tumor cells
# [2] = system: Jurkat; test: CCK-8 proliferation, Jurkat; assay type: cell-based, Human; conditions: Homo sapiens, Jurkat; CCK-8; 96 hours; read-out: Inhibitory activity (IC50) on tumor cell proliferation, Jurkat
# Procedure, shortened: (§3)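 CCK-8 viability readout; IC50 from growth-inhibition curve fitting. Cells plated, dosed 24h later with a 10-point series, top 10µM, 5-fold steps. Culture at 37°C, 5% CO2.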
# [3] = system: SW620; test: CCK-8 proliferation, SW620; assay type: cell-based; conditions: Homo sapiens, SW-620; CCK-8; 96 hours; read-out: Inhibitory activity (IC50) on tumor cell proliferation, SW620
# Procedure, shortened: as §3
# [4] = system: LNcap; test: CCK-8 proliferation, LNcap; assay type: cell-based; conditions: Homo sapiens, LNCaP; CCK-8; 96 hours; read-out: Inhibitory activity (IC50) on tumor cell proliferation, Lncap
# Procedure, shortened: as §3
# [5] = system: MGC-803; test: CCK-8 proliferation, MGC-803 (heads: MGC80-3, MGC803); assay type: cell-based, Human; conditions: Homo sapiens, MGC-803; CCK-8; 72 hours; read-out: Inhibitory activity (IC50) on tumor cell proliferation, MGC803
# Procedure, shortened: as §3
# [6] = system: CCRF-CEM; test: CCK-8 proliferation, CCRF-CEM; assay type: cell-based, Human; conditions: Homo sapiens, CCRF-CEM; CCK-8; 96 hours; read-out: Inhibitory activity (IC50) on tumor cell proliferation, CCRF-CEM
# Procedure, shortened: as §3
# [7] = system: MM.1R; test: CCK-8 proliferation, MM.1R; assay type: cell-based; conditions: CCK-8, 72 hours, read-out: Inhibitory activity (IC50) on tumor cell proliferation, MM.1R
# Procedure, shortened: as §3
# [8] = system: K562; test: CCK-8 proliferation, K562; assay type: cell-based; conditions: Homo sapiens, 72 or 96 hours, read-out: Inhibitory activity (IC50) on tumor cell proliferation, K562
# Method: as §1, §2
# [9] = molecular target: T1, human Cereblon WT GST-tagged protein (Homo sapiens, UniProt Q96SW2); test: CRBN binding, HTRF (CEREBLON BINDING kit); conditions: HTRF
# T1 construct: purchased CISBIO 64BDCRBNPEH
# T1 sequence (Q96SW2 whole entry): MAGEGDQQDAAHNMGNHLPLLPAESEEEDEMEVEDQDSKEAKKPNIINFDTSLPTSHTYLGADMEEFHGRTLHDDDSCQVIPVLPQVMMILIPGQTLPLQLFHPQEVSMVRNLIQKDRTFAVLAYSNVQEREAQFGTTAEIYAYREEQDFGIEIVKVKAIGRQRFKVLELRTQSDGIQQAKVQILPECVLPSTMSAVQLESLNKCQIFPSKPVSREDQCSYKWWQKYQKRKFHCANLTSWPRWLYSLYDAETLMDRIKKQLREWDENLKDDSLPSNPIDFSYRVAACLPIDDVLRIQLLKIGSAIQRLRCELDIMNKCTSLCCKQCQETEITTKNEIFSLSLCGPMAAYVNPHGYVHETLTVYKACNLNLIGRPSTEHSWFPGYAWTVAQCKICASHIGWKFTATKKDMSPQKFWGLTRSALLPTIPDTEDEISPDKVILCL
# Procedure, shortened: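 After 3 h at room temperature, emission at 665 and 620 nm was measured in a homogeneous time-resolved fluorescence format. Compounds competed with a Thalidomide-Re probe for GST-tagged wild-type human CRBN, which was labelled with a Eu anti-GST antibody.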
# [10] = system: TRK; test: Western blot degradation of TRK / NTRK (SK-N-AS Cell); assay type: cell-based; conditions: Table D14
# Method: (§4) Conventional Western blot assay was performed to evaluate the effects of the compounds of the present disclosure on the expression of target proteins in cells.
# (§5) (1) Cell Seeding and Protein Harvesting: The selected cells were processed according to the cell seeding procedure and protein harvesting procedure in Table III-2. Table III-2 Cell Seeding and Protein Harvesting Procedures
# (§6) (2) To the collected supernatant, 5X SDS sample loading buffer was added, followed by denaturation at 95°C for 5 minutes. The denatured samples were then separated by SDS-PAGE electrophoresis on a polyacrylamide gel. Proteins were transferred to a nitrocellulose membrane (0.45 µm NC membrane), blocked with blocking buffer at room temperature for 1 hour, and subjected to antibody incubation and development procedures according to the antibody manufacturer's instructions (Cell Signaling Technology).
# (§7) Half-Maximal Degradation Concentration value (the drug concentration required for degrading proteins by 50%, abbreviated as DC50) reads method: comparing the grayscale values of Western blot bands from drug-treated samples with those from blank DMSO-treated controls, and identifying the drug concentration range at which the grayscale value is half that of the DMSO-treated control bands.
# (§8) DC50 values can be calculated using ImageJ software to measure grayscale values of Western blot bands from drug-treated samples. The concentration-response curve is fitted to estimate the drug concentration corresponding to half the grayscale value.
# (§9) Target protein remaining (%) refers to the percentage of target protein remaining in hPBMC cells after treatment with protein degrader compounds.
# (§10) Calculation method for target protein remaining (%): Use ImageJ software to measure grayscale values of Western blot bands from drug (protein degrader)-treated samples. The grayscale value of drug-treated bands is divided by that of internal control protein bands, and the resulting quotient is normalized to obtain the relative percentage of remaining target protein after protein degrader treatment. […]
# [11] = molecular target: T2, BCR-ABL (Homo sapiens, UniProt P00519+P11274+Q96SW2, E27K); test: Western blot degradation of BCR-ABL (K562 Cell); assay type: cell-based; conditions: Table D15
# T2 construct: evaluate the effects of the compounds of the present disclosure on the expression of target proteins in cells; endogenous in cells; host or cells: K562
# T2 sequence (P11274+P00519 fused, stated change not applied): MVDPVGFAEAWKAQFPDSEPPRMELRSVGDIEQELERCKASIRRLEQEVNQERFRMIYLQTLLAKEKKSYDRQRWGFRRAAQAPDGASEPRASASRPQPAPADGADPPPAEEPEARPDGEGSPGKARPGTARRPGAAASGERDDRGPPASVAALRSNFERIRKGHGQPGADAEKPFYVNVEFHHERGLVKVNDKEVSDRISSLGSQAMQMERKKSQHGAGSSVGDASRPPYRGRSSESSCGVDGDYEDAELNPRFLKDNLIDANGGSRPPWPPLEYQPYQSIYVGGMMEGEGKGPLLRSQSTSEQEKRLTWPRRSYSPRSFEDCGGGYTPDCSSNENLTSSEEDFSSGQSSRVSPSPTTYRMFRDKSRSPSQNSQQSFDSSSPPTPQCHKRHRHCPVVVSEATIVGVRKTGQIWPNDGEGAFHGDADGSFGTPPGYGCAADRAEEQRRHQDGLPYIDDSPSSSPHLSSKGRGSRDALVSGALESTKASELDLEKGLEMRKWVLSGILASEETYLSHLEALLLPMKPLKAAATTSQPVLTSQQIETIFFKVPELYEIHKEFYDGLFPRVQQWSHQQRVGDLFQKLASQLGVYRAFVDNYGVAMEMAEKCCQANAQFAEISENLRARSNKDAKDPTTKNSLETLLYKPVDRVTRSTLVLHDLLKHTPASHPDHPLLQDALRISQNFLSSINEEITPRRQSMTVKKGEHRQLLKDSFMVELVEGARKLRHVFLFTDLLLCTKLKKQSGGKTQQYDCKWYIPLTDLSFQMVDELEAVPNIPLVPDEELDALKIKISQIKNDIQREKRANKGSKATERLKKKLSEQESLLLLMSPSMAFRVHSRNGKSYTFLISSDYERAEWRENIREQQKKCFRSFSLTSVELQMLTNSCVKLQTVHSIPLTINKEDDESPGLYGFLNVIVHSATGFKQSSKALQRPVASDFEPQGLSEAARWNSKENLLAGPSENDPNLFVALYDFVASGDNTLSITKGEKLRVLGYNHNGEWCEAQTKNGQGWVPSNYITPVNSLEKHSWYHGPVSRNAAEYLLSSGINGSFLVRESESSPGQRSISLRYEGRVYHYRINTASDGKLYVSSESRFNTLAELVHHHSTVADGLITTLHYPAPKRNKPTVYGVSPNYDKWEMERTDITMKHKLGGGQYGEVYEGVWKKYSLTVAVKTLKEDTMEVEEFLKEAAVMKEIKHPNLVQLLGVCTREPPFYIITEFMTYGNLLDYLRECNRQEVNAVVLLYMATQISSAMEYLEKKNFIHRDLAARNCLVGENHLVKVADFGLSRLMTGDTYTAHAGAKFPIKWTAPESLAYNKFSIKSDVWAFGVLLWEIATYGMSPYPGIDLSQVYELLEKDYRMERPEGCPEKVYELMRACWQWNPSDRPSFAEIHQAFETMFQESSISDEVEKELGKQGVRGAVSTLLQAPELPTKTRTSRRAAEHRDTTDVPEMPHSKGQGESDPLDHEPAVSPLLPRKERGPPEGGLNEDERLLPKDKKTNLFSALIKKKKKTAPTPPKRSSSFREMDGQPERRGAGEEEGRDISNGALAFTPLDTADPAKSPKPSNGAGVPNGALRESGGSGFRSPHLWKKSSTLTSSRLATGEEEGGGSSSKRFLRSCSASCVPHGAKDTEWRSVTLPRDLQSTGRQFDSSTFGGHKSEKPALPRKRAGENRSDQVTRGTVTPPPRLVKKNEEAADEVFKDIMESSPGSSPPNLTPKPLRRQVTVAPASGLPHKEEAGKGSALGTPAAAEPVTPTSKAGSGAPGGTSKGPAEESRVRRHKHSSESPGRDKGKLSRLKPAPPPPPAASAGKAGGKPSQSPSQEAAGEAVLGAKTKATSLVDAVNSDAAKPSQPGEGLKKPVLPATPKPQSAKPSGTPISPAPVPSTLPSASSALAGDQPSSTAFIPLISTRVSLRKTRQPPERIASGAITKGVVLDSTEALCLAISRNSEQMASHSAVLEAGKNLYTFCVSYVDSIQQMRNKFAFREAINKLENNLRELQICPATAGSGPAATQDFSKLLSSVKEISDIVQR
# T2 sequence (Q16531 whole entry, stated change not applied, further chain): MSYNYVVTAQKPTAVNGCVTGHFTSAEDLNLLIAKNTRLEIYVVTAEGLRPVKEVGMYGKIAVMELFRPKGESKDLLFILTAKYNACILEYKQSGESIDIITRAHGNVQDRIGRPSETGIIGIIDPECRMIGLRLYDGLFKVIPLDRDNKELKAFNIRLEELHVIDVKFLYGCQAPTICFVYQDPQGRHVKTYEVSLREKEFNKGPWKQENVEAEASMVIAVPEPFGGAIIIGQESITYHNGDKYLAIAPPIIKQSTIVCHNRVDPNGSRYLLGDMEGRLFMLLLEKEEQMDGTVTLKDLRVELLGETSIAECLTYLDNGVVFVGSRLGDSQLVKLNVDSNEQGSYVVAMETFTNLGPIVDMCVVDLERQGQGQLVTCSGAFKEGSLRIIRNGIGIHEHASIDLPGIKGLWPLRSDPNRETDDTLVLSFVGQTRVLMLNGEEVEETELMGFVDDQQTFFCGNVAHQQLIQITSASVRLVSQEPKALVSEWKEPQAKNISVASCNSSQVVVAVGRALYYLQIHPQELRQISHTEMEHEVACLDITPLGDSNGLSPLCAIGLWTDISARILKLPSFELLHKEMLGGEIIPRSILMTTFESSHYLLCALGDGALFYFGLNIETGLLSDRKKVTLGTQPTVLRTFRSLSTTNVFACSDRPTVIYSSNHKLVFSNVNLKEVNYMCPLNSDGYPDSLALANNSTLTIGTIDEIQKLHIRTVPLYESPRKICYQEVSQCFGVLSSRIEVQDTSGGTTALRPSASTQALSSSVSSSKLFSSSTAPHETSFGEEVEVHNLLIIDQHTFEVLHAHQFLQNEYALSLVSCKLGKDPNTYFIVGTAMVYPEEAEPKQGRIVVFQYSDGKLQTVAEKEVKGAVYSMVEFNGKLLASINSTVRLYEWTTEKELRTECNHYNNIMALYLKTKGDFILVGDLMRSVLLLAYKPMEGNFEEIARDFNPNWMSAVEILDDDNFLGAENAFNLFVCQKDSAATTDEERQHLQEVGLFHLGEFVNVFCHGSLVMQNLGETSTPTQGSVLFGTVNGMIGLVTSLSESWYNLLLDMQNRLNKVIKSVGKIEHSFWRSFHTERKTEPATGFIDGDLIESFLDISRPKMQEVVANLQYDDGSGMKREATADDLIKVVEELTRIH
# T2 sequence (Q96SW2 whole entry, stated change not applied): as the sequence (Q96SW2 whole entry) above
# Method: as §4, §5, §6, §7, §8, §9, §10
# [12] = molecular target: T3, ER (Homo sapiens, UniProt P03372); test: Western blot degradation of ER (MCF-7 Cell); assay type: cell-based; conditions: Table D12
# T3 construct: evaluate the effects of the compounds of the present disclosure on the expression of target proteins in cells; endogenous in cells; host or cells: MCF-7
# T3 sequence (P03372 1-595): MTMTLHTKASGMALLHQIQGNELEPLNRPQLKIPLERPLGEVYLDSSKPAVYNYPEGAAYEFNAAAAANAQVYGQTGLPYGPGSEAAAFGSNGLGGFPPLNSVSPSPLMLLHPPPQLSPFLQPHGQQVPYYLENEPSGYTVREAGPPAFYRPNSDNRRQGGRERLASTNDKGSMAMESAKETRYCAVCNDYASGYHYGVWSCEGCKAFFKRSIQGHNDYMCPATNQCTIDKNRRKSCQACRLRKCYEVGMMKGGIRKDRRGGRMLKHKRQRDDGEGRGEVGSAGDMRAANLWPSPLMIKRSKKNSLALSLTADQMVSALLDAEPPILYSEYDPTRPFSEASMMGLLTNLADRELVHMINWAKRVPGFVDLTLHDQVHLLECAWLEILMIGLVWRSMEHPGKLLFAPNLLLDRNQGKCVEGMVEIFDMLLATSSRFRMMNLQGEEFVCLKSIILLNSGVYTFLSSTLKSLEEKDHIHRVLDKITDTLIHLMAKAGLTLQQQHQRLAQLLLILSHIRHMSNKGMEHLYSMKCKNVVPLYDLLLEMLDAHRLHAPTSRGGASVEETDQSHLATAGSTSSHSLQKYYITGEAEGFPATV
# Method: as §4, §5, §6, §7, §8, §9
# Calculation method for target protein remaining (%): Use ImageJ software to measure grayscale values of Western blot bands from drug (protein degrader)-treated samples. The grayscale value of drug-treated bands is divided by that of internal control protein bands, and the resulting quotient is normalized to obtain the relative percentage of remaining target protein after protein degrader treatment.
# Target protein degradation rate (%) = 100% - target protein remaining (%).
# [13] = system: H1975; test: CCK-8 proliferation, NCI-H1975 (H1975); assay type: cell-based, Human; conditions: Homo sapiens, NCI-H1975; CCK-8; 96 hours; read-out: Inhibitory activity (IC50) on tumor cell proliferation, H1975
# Procedure, shortened: as §3
# [14] = system: H2228; test: CCK-8 proliferation, NCI-H2228 (H2228); assay type: cell-based; conditions: Homo sapiens, NCI-H2228; CCK-8; 96 hours; read-out: Inhibitory activity (IC50) on tumor cell proliferation, H2228
# Procedure, shortened: as §3
# [15] = system: TMD8; test: CCK-8 proliferation, TMD8; assay type: cell-based; conditions: Homo sapiens, TMD8; CCK-8; 72 hours; read-out: Inhibitory activity (IC50) on tumor cell proliferation, TMD8
# Procedure, shortened: as §3
# [16] = system: PC-9; test: CCK-8 proliferation, PC-9; assay type: cell-based, Human; conditions: Homo sapiens, PC-9; CCK-8; 96 hours; read-out: Inhibitory activity (IC50) on tumor cell proliferation, PC-9
# Procedure, shortened: as §3
smiles,measurement,setting,value
"Cc1nc(Nc2ncc(C(=O)Nc3c(C)cccc3Cl)s2)cc(N2CCN(CCO)CC2)n1 [Dasatinib, reference compound]",pIC50,[1],6.30 to 7.00
same,pIC50,[2],5.30 to 6.00
same,pIC50,[3],5.30 to 6.00
same,pIC50,[4],5.00 to 5.30
same,pIC50,[5],5.00 to 5.30
same,pIC50,[6],< 5.00
"NC(=O)c1ccc(N2CCC(N3CCN(Cc4ccc(C5CCC(=O)NC5=O)cc4)CC3)CC2)nc1-c1ccc(Oc2ccccc2)cc1 (stereo not drawn) [GT-03753, 6-(4-(4-(4-(2,6-dioxopiperidin-3-yl)benzyl)piperazin-1-yl)piperidin-1-yl)-2-(4-phenoxyphenyl)nicotinamide]",pIC50,[3],6.00 to 6.30
same,pIC50,[7],6.00 to 6.30
same,pIC50,[8],6.30 to 7.00
"NC(=O)c1ccc(N2CCC(N3CCN(Cc4ccc(C5CCC(=O)NC5=O)c(F)c4)CC3)CC2)nc1-c1ccc(Oc2ccccc2)cc1 (stereo not drawn) [GT-03754, 6-(4-(4-(4-(2,6-dioxopiperidin-3-yl)-3-fluorobenzyl)piperazin-1-yl)piperidin-1-yl)-2-(4-phenoxyphenyl)nicotinamide]",pIC50,[3],6.30 to 7.00
same,pIC50,[7],6.30 to 7.00
same,pIC50,[8],6.30 to 7.00
"CN(Cc1ccc(C2CCC(=O)NC2=O)cc1)C1CCN(c2cccc(-c3cnc4ccc(N5CCC[C@@H]5c5cccc(F)c5)nn34)n2)CC1 (stereo partly drawn) [GT-03898, 3-(4-(((1-(6-(6-((R)-2-(3-fluorophenyl)pyrrolidin-1-yl)imidazo[1,2-b]pyridazin-3-yl)pyridin-2-yl)piperidin-4-yl)(methyl)amino)methyl)phenyl)piperidine-2,6-dione]",inhibition at 0.5 µM,"[9]; Table II-2, CRBN binding screening, at 0.5µM, read-out: Inhibition rate (%) at 0.5µM",60 to 80%
same,inhibition at 2 µM,"[9]; Table II-2, CRBN binding screening, at 2 µM, read-out: Inhibition rate (%) at 2 µM",80 to 100%
same,Degradation of substrate protein TRK (substrate protein remaining %),[10],A (A is defined as 0% ≤ substrate protein remaining % ≤ 80%)
Cc1ccc(C(=O)Nc2ccc(CN3CCN(Cc4ccc(C5CCC(=O)NC5=O)cc4)CC3)c(C(F)(F)F)c2)cc1C#Cc1cnc2cccnn12 (stereo not drawn) [GT-03936],pIC50,[1],6.30 to 7.00
same,pIC50,[2],7.00 to 7.30
same,pIC50,[3],6.30 to 7.00
same,pIC50,[4],6.30 to 7.00
same,pIC50,[5],6.30 to 7.00
same,pIC50,[6],6.30 to 7.00
"CN(Cc1ccc(C2CCC(=O)NC2=O)cc1)C1CCN(c2ccc(C(=O)Nc3n[nH]c4ccc(Cc5cc(F)cc(F)c5)cc34)c(NC3CCOCC3)c2)CC1 (stereo not drawn) [GT-03964, N-(5-(3,5-difluorobenzyl)-1H-indazol-3-yl)-4-(4-((4-(2,6-dioxopiperidin-3-yl)benzyl)(methyl)amino)piperidin-1-yl)-2-((tetrahydro-2H-pyran-4-yl)amino)benzamide]",Degradation of substrate protein TRK (substrate protein remaining %),[10],A (A is defined as 0% ≤ substrate protein remaining % ≤ 80%)
"CN(Cc1ccc(C2CCC(=O)NC2=O)c(F)c1)C1CCN(c2ccc(C(=O)Nc3n[nH]c4ccc(Cc5cc(F)cc(F)c5)cc34)c(NC3CCOCC3)c2)CC1 (stereo not drawn) [GT-03965, N-(5-(3,5-difluorobenzyl)-1H-indazol-3-yl)-4-(4-((4-(2,6-dioxopiperidin-3-yl)-3-fluorobenzyl)(methyl)amino)piperidin-1-yl)-2-((tetrahydro-2H-pyran-4-yl)amino)benzamide]",Degradation of substrate protein TRK (substrate protein remaining %),[10],A (A is defined as 0% ≤ substrate protein remaining % ≤ 80%)
"O=C1CCC(c2ccc(CN3CCC(N4CCN(c5ncc(C(=O)Nc6ccc(OC(F)(F)Cl)cc6)cc5-c5cc[nH]n5)CC4)CC3)cc2)C(=O)N1 (stereo not drawn) [GT-04058, N-(4-(chlorodifluoromethoxy)phenyl)-6-(4-(1-(4-(2,6-dioxopiperidin-3-yl)benzyl)piperidin-4-yl)piperazin-1-yl)-5-(1H-pyrazol-3-yl)nicotinamide]",Degradation of substrate protein BCR-ABL (substrate protein remaining %),[11],A (A is defined as 0% ≤ substrate protein remaining % ≤ 80%)
"O=C1CCC(c2ccc(CN3CCN(C4CCN(c5ccc([C@@H]6c7ccc(O)cc7CC[C@@H]6c6ccccc6)cc5)CC4)CC3)cc2)C(=O)N1 (stereo partly drawn) [GT-04684, 3-(4-((4-(1-(4-((1R,2S)-6-hydroxy-2-phenyl-1,2,3,4-tetrahydronaphthalen-1-yl)phenyl)piperidin-4-yl)piperazin-1-yl)methyl)phenyl)piperidine-2,6-dione]",pIC50,"[9]; Table II-1, CRBN binding",5.72 to 6.00
same,Degradation of substrate protein ER (substrate protein remaining %),[12],A (A is defined as 0% ≤ substrate protein remaining % ≤ 80%)
"C=CC(=O)N1CCC(c2ccc(C(N)=O)c(-c3ccc(Oc4ccccc4)cc3)n2)CC1 [Orelabrutinib, reference compound]",pIC50,[13],< 5.00
same,pIC50,[14],< 5.00
same,pIC50,[3],< 5.00
same,pIC50,[7],< 5.00
same,pIC50,[15],5.00 to 5.30
same,pIC50,[16],< 5.00
same,pIC50,[8],< 5.00
